Counter-ions that a name gives are not always drawn. Like-named read-outs stand apart in the source and are kept apart here.
What was measured:
BIR2 domain of XIAP = BIR2 domain of XIAP (Homo sapiens (Human), UniProt P98170, C202A/C213G); experiment: TR-FRET assay for BIR2: inhibition of binding of the XIAP BIR2 domain to Peptide A (SMAC-derived peptide)
Method: (§1) TR-FRET Assay for BIR2 and BIR3
(§2) The ability of a test compound to inhibit the binding of BIR2 and/or BIR3 domains of the XIAP protein to Peptide A (a SMAC-derived peptide described below) evidences that the test compound acts as a SMAC-mimetic resulting in reactivation of a cell's apoptotic pathway.
(§3) The peptides were labeled with the fluorescent tags FITC or TAMRA and Kd values were determined by fluorescence polarization assay. […] The peptide sequence was derivatized with biotin to provide […]-(ε-biotin)-OH 1:2 TFA as the substrate for the TR-FRET assay.
The XIAP protein sequence was obtained from the SWISS-PROT protein sequence database and the BIR2 and BIR3 domains were derived from that. The sequence of the BIR2 domain used for the TR-FRET assay is […].
(§4) Ten nanomolar of 6× Histidine-tagged BIR2 domain, corresponding to amino acids 124-240 of XIAP, or BIR3 domain, corresponding to amino acids 241-356 of XIAP, was mixed with 20 nM of the peptide […]-(ε-biotin)-OH 1:2 TFA, in the presence of 50 mM Tris-Cl, pH 7.5, 100 mM NaCl, 1 mM dithiothreitol (DTT) and 0.1 mg/mL bovine serum albumin (BSA). Following a […] incubation at 37° C., Europium-Streptavidin and Allophycocyanin conjugated anti-Histidine antibody were added to a final concentration of 1.5 nM and 15 nM, respectively. Time-resolved fluorescence resonance energy transfer (TR-FRET) signals were measured 1 hour later at room temperature. Test compound potency was assessed at 10 serially diluted concentrations. Percentage of inhibition at each concentration was determined to generate an IC50 value for each test compound.

BIR3 domain of XIAP = BIR3 domain of XIAP (Homo sapiens (Human), UniProt P98170); experiment: TR-FRET assay for BIR3: inhibition of binding of the XIAP BIR3 domain to Peptide A (SMAC-derived peptide)
Method: as §1, §2, §3
The sequence of the BIR3 domain used for the TR-FRET assay is […]
as §4

[1] = 6x His-tagged BIR2 domain (aa 124-240 of XIAP), 10 nM, 20 nM Peptide A, TR-FRET, read-out: Ic50 BIR2
[2] = 6x His-tagged BIR3 domain (aa 241-356 of XIAP), 10 nM, 20 nM Peptide A, TR-FRET, read-out: Ic50 BIR3

BIR2 domain of XIAP, sequence (P98170 other isoform, or with tags, fused parts or gaps, stated change not applied): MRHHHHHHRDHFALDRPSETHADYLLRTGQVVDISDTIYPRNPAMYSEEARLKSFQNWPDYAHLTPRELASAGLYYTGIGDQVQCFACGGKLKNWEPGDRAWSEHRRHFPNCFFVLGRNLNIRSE
BIR3 domain of XIAP, sequence (P98170 other isoform, or with tags, fused parts or gaps): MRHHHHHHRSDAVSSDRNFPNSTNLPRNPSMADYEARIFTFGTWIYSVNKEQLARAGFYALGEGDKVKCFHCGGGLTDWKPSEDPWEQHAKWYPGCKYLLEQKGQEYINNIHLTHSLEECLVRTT

| Structure (SMILES) | IC50 (BIR2 domain of XIAP; [1]) | IC50 (BIR3 domain of XIAP; [2]) | further results |
| --- | --- | --- | --- |
| CN[C@@H](C)C(=O)N[C@H](C(=O)N1c2ncccc2C[C@H]1CNC(=O)C(C)c1ccccc1)C(C)C (stereo partly drawn) [Example 8, (S)-2-Methylamino-N-((S)-2-methyl-1-{(S)-2-[(2-phenyl-propionylamino)-methyl]-2,3-dihydro-pyrrolo[2,3-b]pyridine-1-carbonyl}-propyl)-propionamide hydrochloride] | 2.56 µM | > 54.8 µM | – |
| CN[C@@H](C)C(=O)N[C@H](C(=O)N1c2ncccc2C[C@H]1CNC(=O)OC)C(C)C [Example 5, {(S)-1-[(S)-3-Methyl-2-((S)-2-methylamino-propionylamino)-butyryl]-2,3-dihydro-1H-pyrrolo[2,3-b]pyridin-2-ylmethyl}-carbamic acid methyl ester hydrochloride] | 1.67 µM | > 54.8 µM | – |
| CN[C@@H](C)C(=O)N[C@H](C(=O)N1c2ncccc2C[C@H]1CNC(=O)Oc1ccccc1)C(C)C [Example 12, {(S)-1-[(S)-3-Methyl-2-((S)-2-methylamino-propionylamino)-butyryl]-2,3-dihydro-1H-pyrrolo[2,3-b]pyridin-2-ylmethyl}-carbamic acid phenyl ester hydrochloride] | – | – | IC50 (BIR2 domain of XIAP): 1.62 µM; IC50 (BIR3 domain of XIAP): > 54.8 µM |
| CN[C@@H](C)C(=O)N[C@H](C(=O)N1c2ncccc2C[C@H]1CNC(=O)N(C)C)C(C)C [Example 6, (S)-N-{(S)-1-[(S)-2-(3,3-Dimethyl-ureidomethyl)-2,3-dihydro-pyrrolo[2,3-b]pyridine-1-carbonyl]-2-methyl-propyl}-2-methylamino-propionamide hydrochloride] | 6.17 µM | > 54.8 µM | – |
| CN[C@@H](C)C(=O)N[C@H](C(=O)N1c2ncccc2C[C@H]1CNc1ccc2ccccc2c1)C(C)C [Example 14, (S)-2-methylamino-N—{(S)-2-methyl-1-[(S)-2-(naphthalen-2-ylaminomethyl)-2,3-dihydro-pyrrolo[2,3-b]pyridine-1-carbonyl]-propyl}-propionamide hydrochloride] | 0.506 µM | 3.95 µM | – |
| CN[C@@H](C)C(=O)N[C@H](C(=O)N1c2ncccc2C[C@H]1CNC(=O)Nc1ccccc1)C(C)C [Example 7, (S)-2-Methylamino-N-((S)-2-methyl-1-{(S)-2-[(3-phenyl-ureido)-methyl]-2,3-dihydro-pyrrolo[2,3-b]pyridine-1-carbonyl}-propyl)-propionamide hydrochloride] | 1.54 µM | > 54.8 µM | – |
| CN[C@@H](C)C(=O)N[C@H](C(=O)N1c2ncccc2C[C@H]1CNc1ccccc1)C(C)C [Example 13, (S)-2-Methylamino-N—[(S)-2-methyl-1-((S)-2-phenylaminomethyl-2,3-dihydro-pyrrolo[2,3-b]pyridine-1-carbonyl)-propyl]-propionamide, hydrochloride] | 0.307 µM | 5.34 µM | – |
| CN[C@@H](C)C(=O)N[C@H](C(=O)N1c2ncccc2C[C@H]1CNC(=O)OCc1ccccc1)C(C)C [Example 11, {(S)-1-[(S)-3-Methyl-2-((S)-2-methylamino-propionylamino)-butyryl]-2,3-dihydro-1H-pyrrolo[2,3-b]pyridin-2-ylmethyl}-carbamic acid benzyl ester] | 1.05 µM | > 54.8 µM | – |
| CN[C@@H](C)C(=O)N[C@H](C(=O)N1c2ncccc2C[C@H]1CNS(=O)(=O)c1ccccc1)C(C)C [Example 10, (S)-N-{(S)-1-[(S)-2-(Benzenesulfonylamino-methyl)-2,3-dihydro-pyrrolo[2,3-b]pyridine-1-carbonyl]-2-methyl-propyl}-2-methylamino-propionamide hydrochloride] | 0.82 µM | > 54.8 µM | – |
| CN[C@@H](C)C(=O)N[C@H](C(=O)N1c2ncccc2C[C@H]1CNC(=O)Cc1ccccc1)C(C)C [Example 4, (S)-2-Methylamino-N-{(S)-2-methyl-1-[(S)-2-(phenylacetylamino-methyl)-2,3-dihydro-pyrrolo[2,3-b]pyridine-1-carbonyl]-propyl}-propionamide hydrochloride] | 1.57 µM | > 54.8 µM | – |
| CN[C@@H](C)C(=O)N[C@H](C(=O)N1c2ncccc2C[C@H]1CNS(C)(=O)=O)C(C)C [Example 9, (S)-N-{(S)-1-[(S)-2-(Methanesulfonylamino-methyl)-2,3-dihydro-pyrrolo[2,3-b]pyridine-1-carbonyl]-2-methyl-propyl}-2-methylamino-propionamide hydrochloride] | 1.24 µM | > 54.8 µM | – |
| CN[C@@H](C)C(=O)N[C@H](C(=O)N1c2ncccc2CC1CNC(C)=O)C(C)C (stereo partly drawn) [Example 2, (S)-N-{(S)-1-[2-(Acetylamino-methyl)-2,3-dihydro-pyrrolo[2,3-b]pyridine-1-carbonyl]-2-methyl-propyl}-2-methylamino-propionamide hydrochloride] | – | – | IC50 (BIR2 domain of XIAP; read-out: Ic50 BIR2): 4.67 µM; IC50 (BIR3 domain of XIAP; read-out: Ic50 BIR3): > 54.8 µM |
| CNC(=O)NCC1Cc2cccnc2N1C(=O)[C@@H](NC(=O)[C@H](C)NC)C(C)C (stereo partly drawn) [Example 3, (S)-2-Methylamino-N-((S)-2-methyl-1-{2-[(3-methyl-ureido)-methyl]-2,3-dihydro-pyrrolo[2,3-b]pyridine-1-carbonyl}-propyl)-propionamide hydrochloride] | 4.88 µM | > 54.8 µM | – |
| CN[C@@H](C)C(=O)N[C@H](C(=O)N1c2ncccc2C[C@H]1CNC(=O)c1ccccc1)C(C)C [Example 1, N—{(S)-1-[(S)-3-Methyl-2-((S)-2-methylamino-propionylamino)-butyryl]-2,3-dihydro-1H-pyrrolo[2,3-b]pyridin-2-ylmethyl}-benzamide, hydrochloride] | 0.888 µM | 53 µM | – |
